Experimental data taken from PubChem BioAssay AID1259407 (Chemical Carcinogenesis Research Information System (CCRIS), 2018).
Activity calls are given as the source filed them. No rule for the calls is given here.

Test system: CCRIS mutagenicity, Ames/micronucleus/aberration tests
Test: CCRIS mutagenicity studies
[1] = Test System: AMES SALMONELLA TYPHIMURIUM, Strain/Indicator: TA98, Metabolic Activation: NONE, Method: STANDARD PLATE
[2] = Test System: AMES SALMONELLA TYPHIMURIUM, Strain/Indicator: TA98, Metabolic Activation: RAT, LIVER, S-9, AROCLOR 1254, Method: STANDARD PLATE
[3] = Test System: AMES SALMONELLA TYPHIMURIUM, Strain/Indicator: TA100, Metabolic Activation: NONE, Method: STANDARD PLATE
[4] = Test System: AMES SALMONELLA TYPHIMURIUM, Strain/Indicator: TA100, Metabolic Activation: RAT, LIVER, S-9, AROCLOR 1254, Method: STANDARD PLATE
[5] = Test System: AMES SALMONELLA TYPHIMURIUM, Strain/Indicator: TA1535, Metabolic Activation: NONE, Method: STANDARD PLATE
[6] = Test System: AMES SALMONELLA TYPHIMURIUM, Strain/Indicator: TA1535, Metabolic Activation: RAT, LIVER, S-9, AROCLOR 1254, Method: STANDARD PLATE
[7] = Test System: AMES SALMONELLA TYPHIMURIUM, Strain/Indicator: TA1537, Metabolic Activation: NONE, Method: STANDARD PLATE
[8] = Test System: AMES SALMONELLA TYPHIMURIUM, Strain/Indicator: TA1537, Metabolic Activation: RAT, LIVER, S-9, AROCLOR 1254, Method: STANDARD PLATE
[9] = Test System: AMES SALMONELLA TYPHIMURIUM, Strain/Indicator: TA1538, Metabolic Activation: NONE, Method: STANDARD PLATE
[10] = Test System: AMES SALMONELLA TYPHIMURIUM, Strain/Indicator: TA1538, Metabolic Activation: RAT, LIVER, S-9, AROCLOR 1254, Method: STANDARD PLATE

SMILES: CN(CCO)C(=O)Nc1ccc(Cl)c(Cl)c1
- mutagenic call [1]: inactive; negative
- mutagenic call [2]: inactive; negative
- mutagenic call [3]: inactive; negative
- mutagenic call [4]: inactive; negative
- mutagenic call [5]: inactive; negative
- mutagenic call [6]: inactive; negative
- mutagenic call [7]: inactive; negative
- mutagenic call [8]: inactive; negative
- mutagenic call [9]: inactive; negative
- mutagenic call [10]: inactive; negative

SMILES: COC1=CC(=O)OC(/C=C/c2ccccc2)C1 (centres undefined)
- mutagenic call (Test System: L5178Y ( tk+/tk-), Metabolic Activation: Human, Liver, S-9, Method: Suspension/plate): inactive; negative

SMILES: O=[N+]([O-])c1cccc2[nH]c3ccccc3c12
- mutagenic call [1]: active; positive
- mutagenic call (Test System: AMES SALMONELLA TYPHIMURIUM, Strain/Indicator: TA98, Metabolic Activation: RAT, LIVER, S-9, PHENOBARBITAL, Method: STANDARD PLATE): active; positive
- mutagenic call [7]: inactive; negative
- mutagenic call (Test System: AMES SALMONELLA TYPHIMURIUM, Strain/Indicator: TA1537, Metabolic Activation: RAT, LIVER, S-9, PHENOBARBITAL, Method: STANDARD PLATE): inactive; negative
- mutagenic call [9]: active; positive
- mutagenic call (Test System: AMES SALMONELLA TYPHIMURIUM, Strain/Indicator: TA1538, Metabolic Activation: RAT, LIVER, S-9, PHENOBARBITAL, Method: STANDARD PLATE): active; positive
- mutagenic call (Test System: AMES SALMONELLA TYPHIMURIUM, Strain/Indicator: TA1977, Metabolic Activation: NONE, Method: STANDARD PLATE): inactive; negative
- mutagenic call (Test System: AMES SALMONELLA TYPHIMURIUM, Strain/Indicator: TA1977, Metabolic Activation: RAT, LIVER, S-9, PHENOBARBITAL, Method: STANDARD PLATE): inactive; negative

SMILES: NCCCCC(N)C(=O)O (centres undefined)
- mutagenic call (Test System: AMES SALMONELLA TYPHIMURIUM, Strain/Indicator: TA98, Metabolic Activation: RAT LIVER S-9, CHLOROPHENE, Method: STANDARD PLATE (COMPOUND HEATED AT 250 DEGREES CELSIUS FOR 20 MIN)): active; positive

SMILES: C=C(Cl)CCl
- mutagenic call (End Point: IN VITRO CHROMOSOMAL ABERRATIONS, Test System: CHO-LB CELLS, Metabolic Activation: NONE): active; positive
- mutagenic call (End Point: IN VITRO CHROMOSOMAL ABERRATIONS, Test System: CHO-LB CELLS, Metabolic Activation: RAT, LIVER, S-9, AROCLOR 1254): active; positive
- mutagenic call (Test System: AMES SALMONELLA TYPHIMURIUM, Strain/Indicator: TA97, Metabolic Activation: HAMSTER, LIVER, S-9, AROCLOR 1254 (10%), Method: PREINCUBATION): active; positive
- mutagenic call (Test System: AMES SALMONELLA TYPHIMURIUM, Strain/Indicator: TA97, Metabolic Activation: NONE, Method: PREINCUBATION): active; positive
- mutagenic call (Test System: AMES SALMONELLA TYPHIMURIUM, Strain/Indicator: TA97, Metabolic Activation: RAT, LIVER, S-9, AROCLOR 1254 (10%), Method: PREINCUBATION): active; positive
- mutagenic call (Test System: AMES SALMONELLA TYPHIMURIUM, Strain/Indicator: TA98, Metabolic Activation: HAMSTER, LIVER, S-9, AROCLOR 1254 (10%), Method: PREINCUBATION): active; positive
- mutagenic call (Test System: AMES SALMONELLA TYPHIMURIUM, Strain/Indicator: TA98, Metabolic Activation: HAMSTER, LIVER, S-9, AROCLOR 1254, Method: STANDARD PLATE): active; positive
- mutagenic call (Test System: AMES SALMONELLA TYPHIMURIUM, Strain/Indicator: TA98, Metabolic Activation: NONE, Method: PREINCUBATION): active; positive
- mutagenic call [1]: active; positive
- mutagenic call (Test System: AMES SALMONELLA TYPHIMURIUM, Strain/Indicator: TA98, Metabolic Activation: RAT, LIVER, S-9, AROCLOR 1254 (10%), Method: PREINCUBATION): active; positive
- mutagenic call [2]: inactive; negative
- mutagenic call (Test System: AMES SALMONELLA TYPHIMURIUM, Strain/Indicator: TA100, Metabolic Activation: HAMSTER, LIVER, S-9, AROCLOR 1254 (10%), Method: PREINCUBATION): active; positive
- mutagenic call (Test System: AMES SALMONELLA TYPHIMURIUM, Strain/Indicator: TA100, Metabolic Activation: HAMSTER, LIVER, S-9, AROCLOR 1254, Method: STANDARD PLATE): active; positive
- mutagenic call (Test System: AMES SALMONELLA TYPHIMURIUM, Strain/Indicator: TA100, Metabolic Activation: NONE, Method: PREINCUBATION): active; positive
- mutagenic call [3]: active; positive
- mutagenic call (Test System: AMES SALMONELLA TYPHIMURIUM, Strain/Indicator: TA100, Metabolic Activation: RAT, LIVER, MICROSOMES, PHENOBARBITAL, NADPH COFACTORS, Method: STANDARD PLATE): inactive; negative
- mutagenic call (Test System: AMES SALMONELLA TYPHIMURIUM, Strain/Indicator: TA100, Metabolic Activation: RAT, LIVER, MICROSOMES, PHENOBARBITAL, Method: STANDARD PLATE): inactive; negative
- mutagenic call (Test System: AMES SALMONELLA TYPHIMURIUM, Strain/Indicator: TA100, Metabolic Activation: RAT, LIVER, S-9, AROCLOR 1254 (10%), Method: PREINCUBATION): active; positive
- mutagenic call [4]: active; positive
- mutagenic call (Test System: AMES SALMONELLA TYPHIMURIUM, Strain/Indicator: TA102, Metabolic Activation: S-9, Method: STANDARD PLATE): inactive; negative
- mutagenic call (Test System: AMES SALMONELLA TYPHIMURIUM, Strain/Indicator: TA1535, Metabolic Activation: HAMSTER, LIVER, S-9, AROCLOR 1254 (10%), Method: PREINCUBATION): active; positive
- mutagenic call (Test System: AMES SALMONELLA TYPHIMURIUM, Strain/Indicator: TA1535, Metabolic Activation: HAMSTER, LIVER, S-9, AROCLOR 1254, Method: STANDARD PLATE): active; positive
- mutagenic call (Test System: AMES SALMONELLA TYPHIMURIUM, Strain/Indicator: TA1535, Metabolic Activation: NONE, Method: PREINCUBATION): active; positive
- mutagenic call [5]: active; positive
- mutagenic call (Test System: AMES SALMONELLA TYPHIMURIUM, Strain/Indicator: TA1535, Metabolic Activation: RAT, LIVER, S-9, AROCLOR 1254 (10%), Method: PREINCUBATION): active; positive
- mutagenic call [6]: active; positive
- mutagenic call (Test System: AMES SALMONELLA TYPHIMURIUM, Strain/Indicator: TA1537, Metabolic Activation: HAMSTER, LIVER, S-9, AROCLOR 1254, Method: STANDARD PLATE): inactive; negative
- mutagenic call [7]: inactive; negative
- mutagenic call [8]: inactive; negative
- mutagenic call (Test System: AMES SALMONELLA TYPHIMURIUM, Strain/Indicator: TA1538, Metabolic Activation: HAMSTER, LIVER, S-9, AROCLOR 1254, Method: STANDARD PLATE): inactive; negative
- mutagenic call [9]: inactive; negative
- mutagenic call [10]: inactive; negative
- mutagenic call (Test System: AMES SALMONELLA TYPHIMURIUM, Strain/Indicator: TA1978, Metabolic Activation: NONE, Method: STANDARD PLATE): active; positive
- mutagenic call (Test System: AMES SALMONELLA TYPHIMURIUM, Strain/Indicator: TA1978, Metabolic Activation: RAT, LIVER, S-9, AROCLOR 1254, Method: STANDARD PLATE): active; positive
- mutagenic call (Test System: AMES SALMONELLA TYPHIMURIUM, Strain/Indicator: TA2638, Metabolic Activation: S-9, Method: STANDARD PLATE): inactive; negative
- mutagenic call (Test System: E. COLI, Strain/Indicator: WP2 (PKM101), Metabolic Activation: S-9, Method: STANDARD PLATE): inactive; negative
- mutagenic call (Test System: E. COLI, Strain/Indicator: WP2 UVRA (PKM101), Metabolic Activation: S-9, Method: STANDARD PLATE): active; positive
- mutagenic call (Test System: MOUSE LYMPHOMA, Strain/Indicator: L5178Y (TK+/TK-), Metabolic Activation: NONE, Method: SUSPENSION/PLATE): active; positive. reevaluation of results: positive
- mutagenic call (Test System: MOUSE LYMPHOMA, Strain/Indicator: L5178Y (TK+/TK-), Metabolic Activation: RAT, LIVER, S-9, AROCLOR 1254, Method: SUSPENSION/PLATE): active; positive. reevaluation of results: positive
